Laboratory results: publication PMC10175687 (Frontiers in Pharmacology, 2023)
Like-named read-outs stand apart in the source and are kept apart here.

Experiments:
[1] = design: method as in 2 sources, one per row (each row's own in cited_ref): ref Rowland, 1990; Rybak, 2006; Cavalcanti et al., 2010 ||| ref EMA., 2022; details: cited from earlier work; for half-life: ref Rowland, 1990, Rybak, 2006, Cavalcanti et al., 2010
[2] = design: method as in Rowland, 1990; Rybak, 2006; Cavalcanti et al., 2010; details: ref Rowland, 1990, Rybak, 2006, Cavalcanti et al., 2010, cited from earlier work
[3] = design: species or system human; details: in vivo
Procedure: This was a prospective, open-label PPK study conducted in the ICU department of Peking University First Hospital. […] Pregnant and lactating patients, patients with special sites (endocardium, bone, joints, etc.) infections, or those who received any special treatment that may affect drug elimination, such as renal replacement therapy, were excluded.
The infusion duration was 30–60 min. […] Additionally, in 1/3 patients, 2 mL more blood sample was collected immediately after the 5th infusion; in the other 1/3 patients, 2 mL more blood sample was collected 1 h after the 5th dose, and in the remaining 1/3 patients, 2 mL more concentration sample was taken 1 h before the 6th dose. All blood samples were collected in blood collection tubes anticoagulated by ethylene diamine tetra acetic acid (EDTA) for concentration determination.
Blood samples were centrifuged within 12 h to obtain plasma. Then, 0.4 mL plasma samples were added with 0.05 mL internal standard solution (piperacillin sodium 0.15 mg/mL). Consequently, 0.6 mL acetonitrile was added, and the sample was vigorously shaken for 1 min and centrifuged at 12,000 r/min for 5 min. Then, 0.9 mL of the supernatant was transferred to a centrifuge tube, and 0.4 mL of dichloromethane was added. The solution was vigorously shaken for 1 min and centrifuged at 12,000 r/min for 5 min. The supernatant was then transferred into a vial for detection. HPLC detection conditions were as follows: Waters Symmetry C18 column (250 × 4.6 mm, 5 μm); mobile phase: 0.01 mol/L NaH2PO4 (pH = 3.3)-acetonitrile (75:25), isocratic elution; detection wavelength: 240 nm; flow rate: 1.0 mL/min; injection volume: 0.020 mL; column temperature: 35 °C ([Dong et al., 2011]). […] The above analytical method has passed the methodological verification. […] In terms of sensitivity, the signal-to-noise ratio (S/N) of the LOQ was >10. The relative standard deviations (RSDs) of the intra-day and inter-day precision of simulated plasma samples with high, medium and low concentrations were all less than 10%, and the intra-day and inter-day accuracies were 91.01%–101.13% and 92.98%–98.99%, respectively. […] The stability of simulated plasma samples with high, medium and low concentrations was good after being placed at room temperature for 4 h, frozen and thawed 3 times and stored at −80°C for 60 days, respectively, with the RSDs of tested samples all less than 10%.
The model was established in a stepwise manner. In the basic model screening process, one-, two- and three-compartment models with additive, proportional and mixed error were tested respectively, and the basic model was selected by the objective function value (OFV) and visual diagnostic plots ([Gao et al., 2020]). The model parameters were assumed to follow a log-normal distribution, and the inter-individual variability for each structural parameter was modeled using the following equation: Pi=PTV×Exp ηi (1) where P i represents parameters for the i th individual, P TV are the typical values of the parameters, and η i are random variables with zero mean and variance of ω^2.
Demographic and clinical characteristics that were considered plausible for affecting teicoplanin PK were tested as covariates, including sex, age, height, weight, BMI, ALT, AST, TBIL, DBIL, TP, ALB, WBC, Scr, GFR, and BUN. Individual PK estimates obtained from the selected structural model were firstly plotted against covariate values to assess relationships ([Byrne et al., 2017]). When a relationship between the covariate and the PK parameter was observed, the covariate was tested for inclusion into the PPK model. […]

| Molecule | half-life ([1]; vancomycin, adults with normal renal function) [h] | plasma protein binding rate ([2]; vancomycin) | Q, Estimate (RSE%) [3] | Q, bootstrap median (95% PI) [3] | V1, Estimate (RSE%) [3] | V1, bootstrap median (95% PI) [3] | V2, Estimate (RSE%) [3] | V2, bootstrap median (95% PI) [3] | θCL_GFR, Estimate (RSE%) [3] | θCL_GFR, bootstrap median (95% PI) [3] | CL, Estimate (RSE%) ([3]; iv) | renal clearance ([1]; ref EMA., 2022) [mL/min/kg] | total clearance ([1]; ref EMA., 2022) [mL/min/kg] | half-life ([1]; teicoplanin) [h] | dose administered recovered in feces (via bile excretion) ([1]; within 8 days after administration, ref EMA., 2022) [%] | unchanged teicoplanin excreted by the urinary route ([1]; within 16 days, ref EMA., 2022) [%] | plasma protein binding rate ([2]; teicoplanin) |
| --- | --- | --- | --- | --- | --- | --- | --- | --- | --- | --- | --- | --- | --- | --- | --- | --- | --- |
| CN[C@H](CC(C)C)C(=O)N[C@H]1C(=O)N[C@@H](CC(N)=O)C(=O)N[C@H]2C(=O)N[C@H]3C(=O)N[C@H](C(=O)N[C@H](C(=O)O)c4cc(O)cc(O)c4-c4cc3ccc4O)[C@H](O)c3ccc(c(Cl)c3)Oc3cc2cc(c3O[C@@H]2O[C@H](CO)[C@@H](O)[C@H](O)[C@H]2O[C@H]2C[C@](C)(N)[C@H](O)[C@H](C)O2)Oc2ccc(cc2Cl)[C@H]1O [vancomycin] | 6 to 12 | 30%–55% |  |  |  |  |  |  |  |  |  |  |  |  |  |  |  |
| teicoplanin |  |  | 3.12 (10.9) L/h | 3.14 (2.62–3.90) L/h | 20.1 (12.9) L | 19.8 (16.1–26.2) L | 101 (12.7) L | 98.2 (77.5–122.2) L | 0.437 (23.8) | 0.441 (0.234–0.740) | 1.03 (16.6) L/h | 0.13 to 0.2 | 0.167 to 0.233 | 100 to 170 | 2.7 | 80 | about 90% |
